Reference: patent US20090220432A1, “Imaging agents and methods of using same for detecting multidrug resistance in cancer” (The Johns Hopkins University, priority 2005, published 2009)
Entries after “also recorded” stand apart in the source; their conditions may differ.

Columns and labels:
MCF-7^adr cells [1] = experiment: Fluorescent microscopy of contrast agent uptake; type: cell-based, Human
Protocol: (§1) Cells were treated with 100 μg/ml DMCD prior to the exposure to Tat-GdDOTA-TAMRA. An Eclipse E400 microscope with a C-SHG1 super high pressure mercury lamp and a Coolpix 5000 digital camera (Nikon Inc., Tokyo, Japan) was used for fluorescent microscopy. Exposure time= 1/15 s, magnification=×40.
(§2) In addition to the above experiments, collected cell pellets were incubated with 250 μl of Tat-GdDOTA-TAMRA (0.5 mg/ml in EMEM) for 20 min at 37° C. in the 5% CO2 incubator. After consecutive washing with PBS, cells were fixed in 3% paraformaldehyde for 15 min. As a control, cells were incubated with EMEM alone. To inhibit multidrug resistance mechanisms, 100 μM of DMCD was added to cells for 20 min prior to exposure to Tat-GdDOTA-TAMRA. In each step, cells were washed thoroughly. TAMRA fluorescence was detected in the orange-red region using band-selective emission filters centered around 600 nm.

MCF-7^adr cells [2] = experiment: Flow cytometry (FACS) of contrast agent uptake; type: cell-based, Human
Protocol: FIG. 4 is a graph showing fluorescence detection of Tat-GdDOTA-TAMRA taken up by MCF-7^wt and MCF-7^adr cells after exposure to 0.5 mg/ml of same for 20 min. Dotted lines represent controls (line “a”: MCF-7^wt; line “b”: MCF-7^adr). Solid lines represent the cells treated with Tat-GdDOTA-TAMRA (line “c”: MCF-7^wt; line “d”: MCF-7^adr). […] A FACSCalibur (Becton Dickinson Biosciences, San Jose, Calif., U.S.A.) was used for flow cytometry. Acquisition and analysis were performed with Cell Quest software (Becton Dickinson Biosciences, San Jose, Calif., U.S.A.).
as §2

[3] = MRI relaxation times of water sample doped with GdDTPA; type: physicochemical; conditions: water sample doped with GdDTPA (0.05 M)
wild type KB tumor = conditions: cited from earlier work
[4] = T1 relaxivity of the agent at 9.4T; type: physicochemical
Description: (§3) Materials. An HIV-1 Tat basic domain peptide-GdDOTA-carboxytetramethylrhodamine conjugates (Tat-GdDOTA-TAMRA, MW=2,989; as shown in FIG. 1) was custom-synthesized by Global Peptide Services, LLC (Fort Collins, Colo., U.S.A.). The specific T1 relaxivity (R,) of the agent at 9.4T is 4.9 (sec·mM)^−1. Monoclonal anti-P-gp [P-7965], streptavidin-QR conjugates [S-2899], and rhodamine 123 [R-8004] were purchased from Sigma Chemical Company (St. Louis, Mo., U.S.A.). Heptakis-(2,6-di-O-methyl)-β-cyclodextrin (DMCD) and cyclosporin A were purchased from Sigma-Aldrich Co. (St. Louis, Mo., U.S.A.). 4′,6-diamidino-2-phenylindole (DAPI) was obtained from Invitrogen Corp. (Carlsbad, Calif., U.S.A.). All other chemicals were obtained as reagent-grade products. Cell lines. Human breast adenocarcinoma (MCF-7^wt) and its multi-drug-resistant variant (MCF-7^adr) were maintained in Eagle's minimum essential medium (EMEM) with 1% penicillin, streptomycin, and 10% fetal bovine serum at 37° C. with 5% CO2. For MCF-7^adr cells, the growth medium was supplemented with 1.5 μM of adriamycin every medium change. Flow cytometry and fluorescent microscopy. Initially, to check P-gp expression and P-gp function of both cell lines, flow cytometry was implemented using a double staining technique as follows. […]

MCF-7^adr cells [5] = experiment: In vitro MRI T1 measurement of labeled cells; type: cell-based, Human
Protocol: as §2
(§4) Confocal microscopy. MCF-7^wt and MCF-7^adr cell lines were separately seeded in each 4-chamber glass slide (Nalge Nunc International Corp., Naperville, Ill., U.S.A.). Cells were incubated with 250 μl of Tat-GdDOTA-TAMRA (10 μg/ml) for 30 min in the 5% CO2 incubator. Cell nuclei were stained with DAPI ([…]) for 5 min. Cells were fixed with 3% paraformaldehyde for 15 min, and mounted under a coverslip following removal of plastic chambers. Confocal studies were performed with an inverted Zeiss LSM 410 confocal microscope (Carl Zeiss AG, Jena, Germany) using a 40× water immersion lens. In vitro MRI study. For the in vitro MRI study, the cell labeling procedure followed the protocol used for flow cytometry and microscopy studies, except that 20 µM of cyclosporin A was used, rather than DMCD as a multidrug resistance inhibitor. Cell suspensions were transferred into micro-centrifuge PCR tubes. MRI was carried out on a Bruker horizontal bore 9.4T spectrometer (Bruker Biospin GmbH, Rheinstetten, Germany) equipped with shielded gradients. The Paravision 3.0.2 program (Bruker Biospin GmbH) was used as acquisition software. […] Quantitative T1, maps of the samples were reconstructed using custom-written software in the IDL programming environment Research Systems Inc., Boulder, Colo., U.S.A.) that runs on Linux workstations. Final analysis was performed with the Image) program. (NIH, Bethesda, Md., U.S.A.).

MCF-7^wt cells [6] = experiment: In vitro MRI T1 measurement of labeled cells; type: cell-based, Human
Protocol: as §2, §4

MCF-7^wt cells [7] = experiment: Fluorescent microscopy of contrast agent uptake; type: cell-based, Human; conditions: 0.5 mg/ml for 20 min
Protocol: as §1, §2

MCF-7^adr cells [8] = experiment: Confocal microscopy of contrast agent with DAPI nuclei staining; type: cell-based, Human; conditions: MDR cells, 10 μg/ml for 30 min
Protocol: (§5) Confocal microscopy. MCF-7^wt and MCF-7^adr cell lines were separately seeded in each 4-chamber glass slide (Nalge Nunc International Corp., Naperville, Ill., U.S.A.). Cells were incubated with 250 μl of Tat-GdDOTA-TAMRA (10 μg/ml) for 30 min in the 5% CO2 incubator. Cell nuclei were stained with DAPI ([…]) for 5 min. Cells were fixed with 3% paraformaldehyde for 15 min, and mounted under a coverslip following removal of plastic chambers. Confocal studies were performed with an inverted Zeiss LSM 410 confocal microscope (Carl Zeiss AG, Jena, Germany) using a 40× water immersion lens. In vitro MRI study. […] A saturation recovery snapshot-FLASH pulse sequence with an excitation pulse flip angle of 10 degrees, an echo time of 1.245 ms, and ten T1, saturation recovery delays (50, 100, 250, 500, 1,000, 1,500, 2,000, 3,000, 5,000, 12,000 ms) were used (Bhujwalla, Z. M., Artemov, D., Natarajan, K., Ackerstaff, E. & Solaiyappan, M., “Vasuclar Differences Detected by MRI for Metastatic Versus Nonmetastatic Breast and Prostate Cancer Xenografts”, Neoplasia 3, 143-153 (2002)). Quantitative T1, maps of the samples were reconstructed using custom-written software in the IDL programming environment Research Systems Inc., Boulder, Colo., U.S.A.) that runs on Linux workstations. […]

MCF-7^wt cells [9] = experiment: as above; type: cell-based, Human; conditions: wild type cells, 10 μg/ml for 30 min
Protocol: as §5

MCF-7^adr cells [10] = experiment: Flow cytometry of rhodamine 123 uptake (double staining with anti-P-gp); type: cell-based, Human; conditions: 30 min incubation
Description: as §3

MCF-7^wt cells [11] = experiment: as above; type: cell-based, Human; conditions: 30 min incubation
Description: as §3

[12] = MCF-7^adr, 0.5 mg/ml for 20 min

Question: With `COC[C@H]1O[C@@H]2O[C@H]3[C@H](O)[C@@H](OC)[C@@H](O[C@H]4[C@H](O)[C@@H](OC)[C@@H](O[C@H]5[C@H](O)[C@@H](OC)[C@@H](O[C@H]6[C@H](O)[C@@H](OC)[C@@H](O[C@H]7[C@H](O)[C@@H](OC)[C@@H](O[C@H]8[C@H](O)[C@@H](OC)[C@@H](O[C@H]1[C@H](O)[C@H]2OC)O[C@@H]8COC)O[C@@H]7COC)O[C@@H]6COC)O[C@@H]5COC)O[C@@H]4COC)O[C@@H]3COC` [DMCD, Heptakis-(2,6-di-O-methyl)-β-cyclodextrin, reference compound] as the compound, how does the “retention of Tat-GdDOTA-TAMRA conjugates after MDR inhibitor pre-treatment (microscopy)” value (MCF-7^adr cells [1]; MCF-7^adr pre-treated with inhibitor for 20 min) read?
Answer: high retention

Question: And the “uptake of Tat-GdDOTA-TAMRA after MDR inhibitor pre-treatment (FACS)” value (MCF-7^adr cells [2]; MCF-7^adr pre-treated with inhibitor)?
Answer: recovered almost to the level typical for wild type cells

Question: For `O=C([O-])CN(CCN(CC(=O)[O-])CC(=O)O)CCN(CC(=O)[O-])CC(=O)O.[Gd+3]` [GdDTPA], which T1 relaxation time [3] is on record?
Answer: ~25 ms

Question: And the T2 relaxation time [3]?
Answer: ~25 ms

Question: With `[C-]#[N+]CC(C)(C)OC.[C-]#[N+]CC(C)(C)OC.[C-]#[N+]CC(C)(C)OC.[C-]#[N+]CC(C)(C)OC.[C-]#[N+]CC(C)(C)OC.[C-]#[N+]CC(C)(C)OC.[Tc]` [[^99mTc]SESTAMIBI] as the compound, how does the retention in tumor (wild type KB tumor) read?
Answer: retained

Question: For “HIV-1 Tat basic domain peptide-GdDOTA-carboxytetramethylrhodamine conjugates [Tat-GdDOTA-TAMRA]”, which “specific T1 relaxivity” value [4] is on record?
Answer: 4.9 s/mM

Question: What about the T1 (MCF-7^adr cells [5]; MCF-7^adr cells, 0.5 mg/ml agent for 20 min, 9.4T MRI, averaged T1) of the same compound?
Answer: 2.05 ± 0.06 s

Question: And the “T1 reduction (ΔT1)” value (MCF-7^adr cells [5]; MCF-7^adr, treated vs control (Table 1 columns 6 and 7))?
Answer: 0.3 ± 0.11 s

Question: And the “effect on T1 relaxation time” value (MCF-7^adr cells [5]; MDR cells treated with the conjugates alone)?
Answer: almost no decrease

Question: And the T1 (MCF-7^wt cells [6]; MCF-7^wt cells, 0.5 mg/ml agent for 20 min, 9.4T MRI, averaged T1)?
Answer: 1.79 ± 0.02 s

Question: What about the “T1 reduction (ΔT1)” value (MCF-7^wt cells [6]; MCF-7^wt, treated vs control (Table 1 columns 2 and 3)) of the same compound?
Answer: 0.54 ± 0.11 s

Question: What about the “effect on T1 relaxation time” value (MCF-7^wt cells [6]; wild type cells, 0.5 mg/ml) of the same compound?
Answer: significantly decreased; also recorded: significantly reduced

Question: What about the “fluorescence detected by microscopy” value (MCF-7^adr cells [1]; [12]) of the same compound?
Answer: Lower or no fluorescence

Question: And the “uptake by fluorescence microscopy” value (MCF-7^wt cells [7])?
Answer: Efficient uptake

Question: What about the “agent delivered into cells by FACS, in comparison to MCF-7^wt” value (MCF-7^adr cells [2]; [12]) of the same compound?
Answer: significantly lower

Question: What about the “intracellular localization (confocal)” value (MCF-7^adr cells [8]) of the same compound?
Answer: significantly less compound and less co-localization with nuclei

Question: What about the “intracellular localization (confocal)” value (MCF-7^wt cells [9]) of the same compound?
Answer: co-localized with nuclei

Question: Which “accumulation of rhodamine 123” value (MCF-7^adr cells [10]) does the source give for rhodamine 123 here?
Answer: reduced accumulation

Question: And the “accumulation of rhodamine 123” value (MCF-7^wt cells [11])?
Answer: efficient accumulation
